From patent publication US8609648B2, “Hepatitis C virus inhibitors” (Enanta Pharmaceuticals, Inc., priority 2009, dated 2013)

System: HCV 1b genotype replicon
Test: HCV replicon assay (qRT-PCR or luciferase)
Type: cell-based
Conditions: Hepatitis C virus, read-out: Genotype-1b replicon EC50 Range
Excerpt: HCV replicon cell lines (kindly provided by R. Bartenschlager) isolated from colonies as described by Lohman et. al. (Lohman et al. (1999) Science 285: 110-113, expressly incorporated by reference in its entirety) and used for all experiments. The HCV replicon has the nucleic acid sequence set forth in EMBL Accession No.: AJ242651, the coding sequence of which is from nucleotides 1801 to 8406.
The coding sequence of the published HCV replicon was synthesized and subsequently assembled in a modified plasmid pBR322 (Promega, Madison, Wis.) using standard molecular biology techniques. One replicon cell line (“SGR 11-7”) stably expresses HCV replicon RNA which consists of (i) the HCV 5′UTR fused to the first 12 amino acids of the capsid protein, (ii) the neomycin phosphotransferase gene (neo), (iii) the IRES from encephalomyocarditis virus (EMCV), and (iv) HCV NS2 to NS5B genes and the HCV 3′UTR. Another replicon cell line (“Huh-luc/neo-ET”) described by Vrolijk et. al. (Vrolijk et. al. (2003) Journal of Virological Methods 110:201-209, expressly incorporated by reference in its entirety) stably expresses HCV replicon RNA which consists of (i) the HCV 5′UTR fused to the first 12 amino acids of the capsid protein, (ii) the firefly luciferase reporter gene, (iii) the ubiquitin gene, (iv) the neomycin phosphotransferase gene (neo), (v) the IRES from encephalomyocarditis virus (EMCV), and (vi) HCV NS3 to NS5B genes that harbor cell culture adaptive mutations (E1202G, T1280I, K1846T) and the HCV 3′UTR.
These cell lines were maintained at 37° C., 5% CO2, 100% relative humidity in DMEM (Cat#11965-084, Invitrogen), with 10% fetal calf serum (“FCS”, Invitrogen), 1% non-essential amino acids (Invitrogen), 1% of Glutamax (Invitrogen), 1% of 100× penicillin/streptomycin (Cat#15140-122, Invitrogen) and Geneticin (Cat#10131-027, Invitrogen) at 0.75 mg/ml or 0.5 mg/ml for 11-7 and Huh-luc/neo-ET cells, respectively.
EC50 values of single agent compounds and combinations were determined by HCV RNA detection using quantitative RT-PCR, according to the manufacturer's instructions, with a TAQMAN® One-Step RT-PCR Master Mix Reagents Kit (Cat# AB 4309169, Applied Biosystems) on an ABI Model 7500 thermocycler. The TaqMan primers used for detecting and quantifying HCV RNA were obtained from Integrated DNA Technologies. HCV RNA was normalized to GAPDH RNA levels in drug-treated cells, which is detected and quantified using the Human GAPDH Endogenous Control Mix (Applied Biosystems, AB 4310884E). Total cellular RNA is purified from 96-well plates using the RNAqueous 96 kit (Ambion, Cat# AM1812). Chemical agent cytotoxicity is evaluated using an MTS assay according to the manufacturer's directions (Promega).
Since clinical drug resistance often develops in viral infections following single agent therapies, there is a need to assess the additive, antagonistic, or synergistic properties of combination therapies. We used the HCV replicon system to assess the potential use of the compound of the present invention or in combination therapies with Interferon alpha, cyclosporine analogs and inhibitors targeting other HCV proteins. The acute effects of a single or combinations of drugs are studied in the “Huh-luc/neo-ET” replicon with each chemical agent titrated in an X or Y direction in a 6 point two-fold dilution curve centered around the EC50 of each drug. Briefly, replicon cells are seeded at 7,000 cells per well in 90 ul DMEM (without phenol red, Invitrogen Cat.#31053-036) per well with 10% FCS, 1% non-essential amino acids, 1% of Glutamax and 1% of 100× penicillin/streptomycin and incubated overnight at 37° C., 5% CO2, 100% relative humidity. […]

SMILES	EC50
COC(=O)NC1CC[C@@H]2CC[C@@H](c3ncc(-c4ccc(-c5ccc(-c6cnc([C@@H]7CCCN7C(=O)[C@@H](NC(=O)OC)C(C)C)[nH]6)cc5)cc4)[nH]3)N2C1=O (mixture of isomers) [Example 371]	< 1 nM
COC(=O)N[C@H]1CC[C@@H]2SC[C@@H](c3ncc(-c4ccc(-c5ccc(-c6cnc([C@@H]7CCCN7C(=O)[C@@H](NC(=O)OC)C(C)C)[nH]6)cc5)cc4)[nH]3)N2C1=O [Example 368]	< 1 nM
COC(=O)N[C@H]1CC[C@H]2CC[C@@H](c3ncc(-c4ccc(-c5ccc(-c6cnc([C@@H]7CCCN7C(=O)[C@@H](NC(=O)OC)C(C)C)[nH]6)cc5)cc4)[nH]3)N2C1=O [Example 369]	< 1 nM
COC(=O)N[C@H](C(=O)N1CCC[C@H]1c1ncc(-c2ccc(-c3ccc(-c4cnc([C@@H]5CC[C@@H]6CC[C@@H](NC(=O)OC)C(=O)N65)[nH]4)cc3)cc2)[nH]1)C(C)C [Example 370]	< 1 nM
COC(=O)N[C@H](C(=O)N1CCC[C@H]1c1ncc(-c2ccc(-c3ccc(-c4cnc([C@@H]5CS[C@@H]6CCCC(=O)N65)[nH]4)cc3)cc2)[nH]1)C(C)C [Example 372]	< 1 nM
COC(=O)N[C@H](C(=O)N1CCC[C@H]1c1ncc(-c2ccc(-c3ccc(-c4cnc([C@@H]5CS[C@H]6CCCC(=O)N65)[nH]4)cc3)cc2)[nH]1)C(C)C [Example 373]	< 1 nM
COC(=O)N[C@H](C(=O)N1CCC[C@H]1c1ncc(-c2ccc(-c3ccc(-c4cnc([C@@H]5CC[C@H]6CCCCC(=O)N65)[nH]4)cc3)cc2)[nH]1)C(C)C [Example 374]	< 1 nM
COC(=O)N[C@H](C(=O)N1CCC[C@H]1c1ncc(-c2ccc(-c3ccc(-c4cnc([C@@H]5CC[C@@H]6CCCCC(=O)N65)[nH]4)cc3)cc2)[nH]1)C(C)C [Example 375]	< 1 nM
COC(=O)N[C@H]1CCC[C@@H]2CC[C@@H](c3ncc(-c4ccc(-c5ccc(-c6cnc([C@@H]7CCCN7C(=O)[C@@H](NC(=O)OC)C(C)C)[nH]6)cc5)cc4)[nH]3)N2C1=O [Example 376]	< 1 nM
